Measurements: ChEMBL document CHEMBL4011592, “Synthesis and evaluation of 7-substituted-5,6-dihydrobenzo[c]acridine derivatives as new c-KIT promoter G-quadruplex binding ligands” (Eur J Med Chem, 2017)
Active and inactive are the calls of the source. No cut-off for these calls is given here.

Tests used:
Homo sapiens [1] = species: Homo sapiens; experiment: Binding affinity to c-KIT G-quadruplex DNA in human K562 cells assessed as reduction in c-KIT mRNA level at 0.5 uM after 48 hrs by RT-PCR analysis; type: cell-based
[2] = Binding affinity to F10T duplex DNA (unknown origin) assessed as change in melting temperature at 1 uM by FRET assay
BJ = experiment: Cytotoxicity against human BJ cells after 48 hrs by MTT assay; type: cell-based
[3] = Binding affinity to c-KIT1 G-quadruplex DNA (unknown origin) assessed as ability to promote c-KIT G-rich sequences to form parallel G-quadruplex at 25 uM in absence of KCl measured after 10 mins by CD-spectroscopic analysis
K562 [4] = experiment: Induction of apoptosis in human K562 cells assessed as decrease in Bcl-2 expression at 1 to 9 uM after 48 hrs by Western blot analysis; type: functional, cell-based
[5] = Binding affinity to F10T duplex DNA (unknown origin) assessed as change in melting temperature at 2 uM by FRET assay
[6] = Binding affinity to c-KIT1 G-quadruplex DNA (unknown origin) assessed as red shift at 10 uM measured after 10 mins by UV-vis spectroscopic method
K562 [7] = experiment: Cytotoxicity against human K562 cells after 48 hrs by MTT assay; type: functional, cell-based; details: K562, 48 h
K562 [8] = experiment: Induction of apoptosis in human K562 cells assessed as upregulation of cleaved caspase-3 at 1 to 9 uM after 48 hrs by Western blot analysis; type: functional, cell-based
[9] = Binding affinity to 5'-FAM labelled duplex DNA (unknown origin) by microscale thermophoresis
K562 [10] = experiment: Induction of apoptosis in human K562 cells assessed as increase in cleaved PARP level at 1 to 9 uM after 48 hrs by Western blot analysis; type: functional, cell-based
[11] = Binding affinity to 5'-FAM/3'-TAMARA labelled c-KIT1 G-quadruplex DNA (unknown origin) assessed as change in melting temperature at 2 uM by FRET assay
[12] = Binding affinity to c-KIT1 G-quadruplex DNA (unknown origin) assessed as maintainance of parallel c-KIT G-quadruplex conformation at 5 uM in presence of KCl measured after 10 mins by CD-spectroscopic analysis
[13] = Binding affinity to c-KIT2 G-quadruplex DNA (unknown origin) assessed as ability to promote c-KIT G-rich sequences to form parallel G-quadruplex at 25 uM in absence of KCl measured after 10 mins by CD-spectroscopic analysis
[14] = Binding affinity to 5'-FAM labelled c-KIT1 G-quadruplex DNA (unknown origin) by microscale thermophoresis
[15] = Binding affinity to 5'-FAM/3'-TAMARA labelled c-KIT2 G-quadruplex DNA (unknown origin) assessed as change in melting temperature at 1 uM by FRET assay
[16] = Binding affinity to c-KIT1 G-quadruplex DNA (unknown origin) assessed as hyperchromicity at 10 uM measured after 10 mins by UV-vis spectroscopic method
K562 [17] = experiment: Induction of apoptosis in human K562 cells assessed as late apoptotic cells at 1 uM after 48 hrs by flow cytometric method (reference value: 0.1 %); type: functional
K562 [18] = experiment: Induction of apoptosis in human K562 cells assessed as late apoptotic cells at 3 uM after 48 hrs by flow cytometric method (reference value: 0.1 %); type: functional
[19] = Binding affinity to c-KIT1 G-quadruplex DNA (unknown origin) measured after 10 mins by UV-vis spectroscopic method
K562 [20] = experiment: Induction of apoptosis in human K562 cells assessed as late apoptotic cells at 9 uM after 48 hrs by flow cytometric method (reference value: 0.1 %); type: functional
[21] = Binding affinity to 5'-FAM/3'-TAMARA labelled c-KIT1 G-quadruplex DNA (unknown origin) assessed as change in melting temperature at 1 uM by FRET assay
[22] = Selectivity ratio of Kd for biotinylated duplex DNA (unknown origin) to Kd for biotinylated c-KIT1 G-quadruplex DNA (unknown origin)
HeLa = experiment: Cytotoxicity against human HeLa cells after 48 hrs by MTT assay; type: functional, cell-based
[23] = Binding affinity to c-KIT2 G-quadruplex DNA (unknown origin) assessed as maintainance of parallel c-KIT G-quadruplex conformation at 5 uM in presence of KCl measured after 10 mins by CD-spectroscopic analysis
[24] = Binding affinity to biotinylated duplex DNA (unknown origin) by SPR assay
[25] = Binding affinity to biotinylated c-KIT1 G-quadruplex DNA (unknown origin) by SPR assay
K562 [26] = experiment: Cytotoxicity against human K562 cells expressing c-KIT measured up to 3 days by Annexin V-FITC/propidium iodide staining based assay; type: functional, cell-based
K562 [27] = experiment: Induction of apoptosis in human K562 cells assessed as increase in Bad expression after 48 hrs by Western blot analysis; type: functional, cell-based
[28] = Binding affinity to 5'-FAM/3'-TAMARA labelled c-KIT1 G-quadruplex DNA (unknown origin) assessed as change in melting temperature at 2 uM in presence ds26 DNA by FRET assay
K562 [29] = experiment: Induction of apoptosis in human K562 cells assessed as late apoptotic cells at 6 uM after 48 hrs by flow cytometric method (reference value: 0.1 %); type: functional
[30] = Binding affinity to c-KIT1 G-quadruplex DNA (unknown origin) assessed as hyperchromicity at 5 uM measured after 10 mins by fluorescence spectroscopic method
Homo sapiens [31] = species: Homo sapiens; experiment: Binding affinity to c-KIT G-quadruplex DNA in human K562 cells assessed as reduction in c-KIT mRNA level after 48 hrs by RT-PCR analysis; type: cell-based
[32] = Binding affinity to c-KIT1 G-quadruplex DNA (unknown origin) assessed as isosbestic point at 10 uM measured after 10 mins by UV-vis spectroscopic method
Homo sapiens [33] = species: Homo sapiens; experiment: Binding affinity to c-KIT G-quadruplex DNA in human K562 cells assessed as reduction in c-KIT mRNA level at 9 uM after 48 hrs by RT-PCR analysis relative to control; type: cell-based; parameters: scale not given: the % may be the effect or the level left
K562 [34] = experiment: Effect on total c-KIT protein level in human K562 cells at 9 uM after 48 hrs by Western blot analysis; type: ADME, cell-based; details: k562, 48 h
[35] = Binding affinity to c-KIT1 G-quadruplex DNA (unknown origin) assessed as 1:1 binding stoichiometry between compound and G-quadruplex DNA by Job's plot method
[36] = Binding affinity to c-KIT1 G-quadruplex DNA (unknown origin) assessed as 1:1 binding stoichiometry between compound and G-quadruplex DNA 10 uM by ESI-MS spectra analysis
Homo sapiens [37] = species: Homo sapiens; experiment: Binding affinity to c-KIT G-quadruplex DNA in human K562 cells assessed as reduction in c-KIT protein level after 48 hrs by Western blot analysis; type: cell-based
K562 [38] = experiment: Induction of apoptosis in human K562 cells assessed as increase in Bax expression after 48 hrs by Western blot analysis; type: functional, cell-based
A549 = experiment: Cytotoxicity against human A549 cells after 48 hrs by MTT assay; type: functional, cell-based; details: A549, 48 h
K562 [39] = experiment: Induction of apoptosis in human K562 cells assessed as increase in late apoptotic cells after 48 hrs by flow cytometric method; type: functional, cell-based

Question: For `Cc1ccc(NC(=O)c2ccc(CN3CCN(C)CC3)cc2)cc1Nc1nccc(-c2cccnc2)n1`, which Activity (Homo sapiens [1]) is on record?
Answer: inactive

Question: Which ΔTm [2] does the source give for `CCN(CC)CCCNc1c2c(nc3ccccc13)-c1cc(OC)c(OC)cc1CC2` here?
Answer: 0.6 °C

Question: What about the IC50 (BJ) of the same molecule?
Answer: 29.4 µM

Question: And the Activity [3]?
Answer: Active

Question: What about the Activity (K562 [4]) of the same molecule?
Answer: Active

Question: What about the ΔTm [5] of the same molecule?
Answer: 1.2 °C

Question: What about the Activity [6] of the same molecule?
Answer: Active

Question: What about the IC50 (K562 [7]) of the same molecule?
Answer: 9.2 µM

Question: What about the Activity (K562 [8]) of the same molecule?
Answer: Active

Question: And the Kd [9]?
Answer: 10.5 µM

Question: What about the Activity (K562 [10]) of the same molecule?
Answer: Active

Question: What about the ΔTm [11] of the same molecule?
Answer: 15.9 °C

Question: And the Activity [12]?
Answer: Active

Question: And the Activity [13]?
Answer: Active

Question: And the Kd [14]?
Answer: 1.5 µM

Question: And the ΔTm [15]?
Answer: 5.4 °C

Question: And the Activity [16]?
Answer: Active

Question: What about the Activity (K562 [17]) of the same molecule?
Answer: 1.8%

Question: What about the Activity (K562 [18]) of the same molecule?
Answer: 3.6%

Question: What about the Kd [19] of the same molecule?
Answer: 3.3 µM

Question: What about the Activity (K562 [20]) of the same molecule?
Answer: 64.8%

Question: What about the ΔTm [21] of the same molecule?
Answer: 11.9 °C

Question: And the Selectivity ratio [22]?
Answer: > 4.3

Question: What about the IC50 (HeLa) of the same molecule?
Answer: 3.2 µM

Question: What about the Activity [23] of the same molecule?
Answer: Active

Question: And the Kd [24]?
Answer: > 20 µM

Question: And the Kd [25]?
Answer: 4.7 µM

Question: What about the Activity (K562 [26]) of the same molecule?
Answer: Dose-dependent effect

Question: What about the Activity (K562 [27]) of the same molecule?
Answer: Dose-dependent effect

Question: And the Activity [28]?
Answer: Active

Question: What about the Activity (K562 [29]) of the same molecule?
Answer: 8.4%

Question: What about the Activity [30] of the same molecule?
Answer: Active

Question: And the Activity (Homo sapiens [31])?
Answer: Dose-dependent effect

Question: And the Activity [32]?
Answer: Active

Question: And the Activity (Homo sapiens [33])?
Answer: 52%

Question: And the Activity (K562 [34])?
Answer: Non-Toxic

Question: And the Activity [35]?
Answer: Active

Question: What about the Activity [36] of the same molecule?
Answer: Active

Question: What about the Activity (Homo sapiens [37]) of the same molecule?
Answer: Dose-dependent effect

Question: What about the Activity (K562 [38]) of the same molecule?
Answer: Dose-dependent effect

Question: And the IC50 (A549)?
Answer: 5.7 µM

Question: And the Activity (K562 [39])?
Answer: Dose-dependent effect
